# Measurements reported in patent US9499493B2, “2,4-pyrimidinediamine compounds and their uses” (Rigel Pharmaceuticals, Inc., priority 2002, dated 2016).
# Test system: cultured human mast cells (CHMC)
# Assay: CHMC low cell density IgE activation: tryptase assay
# Type: cell-based
# Conditions: anti-IgE
# Method: Pellet CHMC cells (980 rpm, 10 min) and resuspend in pre-warmed MT. Add 65 ul of cells to each 96-well plate. Depending on the degranulation activity for each particular CHMC donor, load 1000-1500 cells/well. Mix four times followed by a 1 hr incubation at 37° C. […] Stimulate cells by adding 25 ul of 6× anti-IgE solution to the appropriate plates. Add 25 ul MT to un-stimulated control wells. Mix twice following addition of the anti-IgE. Incubate at 37° C. for 30 minutes. […] Spin plates at 1000 rpm for 10 min to pellet cells. Transfer 25 ul of supernatant to a 96-well black bottom plate and add 100 ul of freshly diluted tryptase substrate solution to each well. Incubate plates at room temperature for 30 min.
row,Compound,IC50 [nM]
1,CC1(C)CN(c2cccc[n+]2[O-])c2cc(Nc3nc(Cl)ncc3F)ccc2O1 [Compound R940328],> 10000
2,"CNC(=O)COc1cccc(Nc2ncc(F)c(Nc3cccc(-c4nnc(-c5ccccc5)o4)c3)n2)c1 [R926870, 5-Fluoro-N2-[3-(N-methylamino)carbonylmethyleneoxyphenyl]-N4-[3-(2-phenyl-1,3,4-oxadiazol-5-yl)phenyl]-2,4-pyrimidinediamine]",3290
3,"COc1cc(C(=O)NS(=O)(=O)c2ccccc2C)ccc1Cn1ncc2cc(Nc3ncc(F)c(Nc4cccc(O)c4)n3)ccc21 [R935340, 5-Fluoro-N4-(3-hydroxyphenyl)-N2-[1-[2-methoxy-4-(o-toluylsulfonamidocarboxy)benzyl]indazoline-5-yl]-2,4-pyrimidinediamine]",3610
4,"CNC(=O)COc1cccc(Nc2ncc(F)c(Nc3ccc(OC)c(CN4CCOCC4)c3)n2)c1 [R940314, 5-Fluoro-N2-[3-(methylaminocarbonylmethyleneoxy)phenyl]-N4-[3-(N-morpholinomethylene)-4-methoxyphenyl]-2,4-pyrimidinediamine]",4200
5,COc1ccc(Nc2nc(Cl)ncc2F)cc1CN1CCOCC1 [Compound R940313],> 10000
6,"COc1cc(C(=O)NS(=O)(=O)c2ccccc2C)ccc1Cn1ncc2cc(Nc3ncc(F)c(Nc4ccc5c(c4)OCCO5)n3)ccc21 [R935339, N4-(3,4-Ethylenedioxyphenyl)-5-fluoro-N2-[1-[2-methoxy-4-(o-toluylsulfonamidocarboxy)benzyl]indazoline-5-yl]-2,4-pyrimidinediamine]",> 10000
7,Fc1cnc(Cl)nc1Nc1ccc(Cl)c(Cl)c1 [Compound R926884],> 10000
8,"Fc1cnc(NCc2ccc3c(c2)OCO3)nc1NCc1ccc2c(c1)OCO2 [R925770, N2,N4-Bis(piperonyl)-5-fluoro-2,4-pyrimidineamine]",> 10000
9,"COC(=O)c1ccc(Cn2cc3ccc(Nc4ncc(F)c(Nc5cccc(O)c5)n4)cc3n2)c(OC)c1 [R935337, 5-Fluoro-N4-(3-hydroxyphenyl)-N2-[2-(2-methoxy-4-carbomethoxybenzyl)indazoline-6-yl]-2,4-pyrimidinediamine]",> 10000
10,Fc1cnc(Cl)nc1Nc1ccc2c(c1)OC(F)(F)O2 [Compound R920403],> 10000
11,Fc1cnc(Cl)nc1Nc1ccc2cn[nH]c2c1 [Compound R935260],> 10000
12,COc1ccc(Nc2nc(Cl)ncc2F)cn1 [Compound R926878],> 10000
13,Fc1cnc(Cl)nc1Nc1ccc(Cl)c(C(F)(F)F)c1 [Compound R926877],> 10000
14,Fc1cnc(Cl)nc1Nc1ccc(C(F)(F)F)cc1 [Compound R926876],> 10000
15,"O=[N+]([O-])c1ccc(NCCO)c(Nc2ccnc(Nc3cc([N+](=O)[O-])ccc3NCCO)n2)c1 [R950156, N2,N4-Bis(2-hydroxyethyleneamino-5-nitrophenyl)-2,4-pyrimidinediamine]",> 10000
16,"CNC(=O)COc1cccc(Nc2ncc(F)c(Nc3ccc(OC)c(CN(C(=O)OC(C)(C)C)C(C)C)c3)n2)c1 [R940319, N4-(3-(N-tert-Butoxycarbonyl-N-iso-propylaminomethylene)-4-methoxyphenyl)-5-fluoro-N2-[3-(methylaminocarbonylmethyleneoxy)phenyl]-2,4-pyrimidinediamine]",> 10000
17,Cc1ccnc(Nc2nc(Cl)ncc2F)c1 [Compound R920401],> 10000
18,"CC(=O)Nc1cccc(N(C(C)=O)c2ncc(F)c(N(C(C)=O)c3cccc(NC(C)=O)c3)n2)c1 [R950244, N2,N4-Bis(3-N-acetylaminophenyl)-5-fluoro-N2,N4-pyrimidinediacetylamine]",> 10000
19,"CCOC(=O)CCn1ncc2cc(Nc3ncc(F)c(Nc4ccc5c(c4)OCCO5)n3)ccc21 [R935301, N2-[1-(2-Ethoxycarbonylethyl)indazoline-5-yl]-N4-(3,4-ethylenedioxyphenyl)-5-fluoro-2,4-pyrimidinediamine]",4050
20,"CC(=O)N(C(C)=O)c1cccc(N(C(C)=O)c2ncc(F)c(N(C(C)=O)c3cccc(N(C(C)=O)C(C)=O)c3)n2)c1 [R950247, N2,N4-Bis(3-N,N-diacetylaminophenyl)-5-fluoro-N2,N4-pyrimidinediacetylamine]",> 10000

# Stronger by IC50, values ahead:
row,IC50 [nM],Compound
1,2990,"COC(=O)c1ccc(Cn2ncc3ccc(Nc4ncc(F)c(Nc5cccc(O)c5)n4)cc32)c(OC)c1 [R935321, 5-Fluoro-N4-(3-hydroxyphenyl)-N2-[1-(2-methoxy-4-carbomethoxybenzyl)indazoline-6-yl]-2,4-pyrimidinediamine]"
2,2770,"COC(=O)c1ccc(Cn2ncc3ccc(Nc4ncc(F)c(Nc5ccc6c(c5)OCCO6)n4)cc32)c(OC)c1 [R935320, N4-(3,4-Ethylenedioxyphenyl)-5-fluoro-N2-[1-(2-methoxy-4-carbomethoxybenzyl)indazoline-6-yl]-2,4-pyrimidinediamine]"
3,2560,"CNC(=O)COc1cccc(Nc2ncc(F)c(Nc3ccc(OC)c(C(=O)NC(C)C)c3)n2)c1 [R940312, 5-Fluoro-N2-[3-(methylaminocarbonylmethyleneoxy)phenyl]-N4-(3-iso-propylaminocarbonyl-4-methoxyphenyl)-2,4-pyrimidinediamine]"
4,2460,"Fc1cnc(Nc2ccc3c(c2)OCCO3)nc1Nc1ccc2[nH]ncc2c1 [R935267, N2-(3,4-Ethyelenedioxyphenyl)-5-fluoro-N4-(indazoline-5-yl)-2,4-pyrimidinediamine]"
5,2190,"CC1(C)CN(c2ccccn2)c2cc(Nc3nc(Nc4cccc(O)c4)ncc3F)ccc2O1 [R940348, N4-[3-Dihydro-2,2-dimethyl-4-(2-pyridyl)-benzo[1,4]oxazin-6-yl]-5-fluoro-N2-(3-hydroxyphenyl)-2,4-pyrimidinediamine]"
6,1960,"CNC(=O)COc1cccc(Nc2ncc(F)c(Nc3ccc4c(c3)C(=O)CCO4)n2)c1 [R950345, N4-(2,3-Dihydro-4-benzypyranon-6-yl)-5-fluoro-N2-[3-(N-methylamino)carbonylmethyleneoxyphenyl]-2,4-pyrimidinediamine]"
7,1950,"N4-[3-(2-(N4-(3-aminomethylenephenyl)-5-fluoro-4-pyrimidineamine)-N-methylaminomethylene)-phenyl]-5-fluoro-N2-[3-(methylaminocarbonylmethyleneoxy)phenyl]-2,4-pyrimidineamine [R940311]"
8,1860,"COc1ccc(Nc2nc(Nc3cc(C)c(O)c(Cl)c3)ncc2F)cc1CN1CCOCC1 [R940316, N2-(3-Chloro-4-hydroxy-5-methylphenyl)-5-fluoro-N4-[3-(N-morpholinomethylene)-4-methoxyphenyl]-2,4-pyrimidinediamine]"
9,1640,"CNC(=O)COc1cccc(Nc2ncc(F)c(Nc3cnc4c(c3)OCCN4)n2)c1 [R945263, 5-Fluoro-N2-(3-methylaminocarbonylmethyleneoxyphenyl)-N4-[2H-pyrido[3,2-b]-1,4-oxazin-7-yl]-2,4-pyrimidinediamine]"
10,1100,"CNC(=O)COc1cccc(Nc2ncc(F)c(Nc3ccc4c(c3)N(c3ccccn3)CC(C)(C)O4)n2)c1 [R940337, N4-[3-Dihydro-2,2-dimethyl-4-(2-pyridyl)-benzo[1,4]oxazin-6-yl]-5-fluoro-N2-[3-(methylaminocarbonylmethyleneoxy)phenyl]-2,4-pyrimidinediamine]"
11,1060,"Oc1cccc(Nc2ncc(F)c(Nc3ccc4[nH]ncc4c3)n2)c1 [R935268, 5-Fluoro-N2-(3-hydroxyphenyl)-N4-(indazoline-5-yl)-2,4-pyrimidinediamine]"
12,973,"CNC(=O)COc1cccc(Nc2ncc(F)c(Nc3ccc(OC)c(CO)c3)n2)c1 [R950386, N4-(3-Hydroxymethylen-4-methoxyphenyl)-5-fluoro-N2-[3-(N-methylamino)carbonylmethyleneoxyphenyl]-2,4-pyrimidinediamine]"
13,794,"CCOC(=O)C(C)(C)Oc1cccc(Nc2ncc(F)c(Nc3cccc(O)c3)n2)c1 [R926906, N2-[3-(Ethoxycarbonyl-1,1-dimethylmethyleneoxy)phenyl]-5-fluoro-N4-(3-hydroxyphenyl)-2,4-pyrimidinediamine]"
14,585,"CCOC(=O)C(C)(C)Oc1cccc(Nc2ncc(F)c(Nc3ccc(C)c(O)c3)n2)c1 [R926908, N2-[3-(Ethoxycarbonyl-1,1-dimethylmethyleneoxy)phenyl]-5-fluoro-N4-(3-hydroxy-4-methylphenyl)-2,4-pyrimidinediamine]"
15,538,"CNC(=O)COc1cccc(Nc2ncc(F)c(Nc3ccc4cc(C(=O)OC)[nH]c4c3)n2)c1 [R926904, 5-Fluoro-N2-[3-[(N-methylamino)carbonylmethyleneoxy]phenyl]-N4-[2-(methoxycarbonyl)-(1H)-indol-6-yl]-2,4-pyrimidinediamine]"
16,446,"CNC(=O)COc1cccc(Nc2ncc(F)c(Nc3ccc(C#N)c(C)c3)n2)c1 [R926851, N4-(4-Cyano-3-methylphenyl)-5-fluoro-N2-[3-(N-methylamino)carbonylmethyleneoxyphenyl]-2,4-pyrimidinediamine]"
17,238,"CC(C)(CO)c1ccc(Nc2ncc(F)c(Nc3cccc(O)c3)n2)cc1 [R935153, 5-Fluoro-N2-[4-(2-hydroxy-1,1-dimethylethyl)phenyl]-N4-(3-hydroxyphenyl)-2,4-pyrimidinediamine]"
18,139,"CC(C)Oc1ccc(Nc2nc(Nc3ccc4c(cnn4CCCO)c3)ncc2F)cc1 [R935307, 5-Fluoro-N2-[1-(3-hydroxypropyl)indazoline-5-yl]-N4-(4-isopropoxyphenyl)-2,4-pyrimidinediamine]"
19,66,"CNC(=O)COc1cccc(Nc2ncc(F)c(Nc3ccc4c(c3)C(=NO)CCO4)n2)c1 [R950348, N4-(2,3-Dihydro-4-oxime-benzypyran-6-yl)-5-fluoro-N2-[3-(N-methylamino)carbonylmethyleneoxyphenyl]-2,4-pyrimidinediamine]"
